Earlier results, collected in USRE38506E1, “Potent inducers of terminal differentiation and methods of use thereof” (Sloan-Kettering Institute for Cancer Research, priority 1991, dated 2004).

Test system: MELC 745A-DS19 cells
Conditions: without continuing drug exposure; cited from earlier work

CC(=O)NCCCCCCNC(C)=O [HMBA, N,N′-hexamethylene bisacetamide]
minimum duration of continuous exposure required to induce differentiation in a substantial portion (>20%) of the population: about 36 hours
